Laboratory results from paper PMC11873239, “A covalent chemical probe for Chikungunya nsP2 cysteine protease with antialphaviral activity and proteome-wide selectivity” (Scientific Reports, 2025).

Key:
[1] = molecular target: CHIKV nsP2pro (Chikungunya virus, UniProt F2YI08); test: biochemical
[2] = molecular target: HEK293 cell lysate proteins (Homo sapiens, UniProt A8K2U0); format: binding
[3] = molecular target: HEK293 cell lysate proteins (Homo sapiens, UniProt O75342); format: binding
[4] = molecular target: HEK293 cell lysate proteins (Homo sapiens, UniProt P04264); format: binding
Chain of HEK293 cell lysate proteins (Homo sapiens, UniProt P04264) (P04264 whole entry): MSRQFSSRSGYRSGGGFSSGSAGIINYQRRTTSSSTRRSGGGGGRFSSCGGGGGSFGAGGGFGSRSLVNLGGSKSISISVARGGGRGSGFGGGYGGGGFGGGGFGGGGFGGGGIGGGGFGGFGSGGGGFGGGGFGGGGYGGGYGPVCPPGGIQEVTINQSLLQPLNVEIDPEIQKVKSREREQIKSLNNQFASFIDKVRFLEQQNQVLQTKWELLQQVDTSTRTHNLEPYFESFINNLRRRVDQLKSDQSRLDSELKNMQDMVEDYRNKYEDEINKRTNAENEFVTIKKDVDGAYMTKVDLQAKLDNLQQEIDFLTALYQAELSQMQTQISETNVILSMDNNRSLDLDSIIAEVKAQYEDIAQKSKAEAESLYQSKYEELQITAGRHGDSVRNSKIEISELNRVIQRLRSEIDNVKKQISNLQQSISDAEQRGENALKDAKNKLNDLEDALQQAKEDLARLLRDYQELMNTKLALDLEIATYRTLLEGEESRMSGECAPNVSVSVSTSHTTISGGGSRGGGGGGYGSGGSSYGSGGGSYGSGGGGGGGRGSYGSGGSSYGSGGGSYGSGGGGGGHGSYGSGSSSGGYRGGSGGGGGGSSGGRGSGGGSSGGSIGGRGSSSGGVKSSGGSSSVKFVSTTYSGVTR

[5] = molecular target: HEK293 cell lysate proteins (Homo sapiens, UniProt P05089); format: binding
Chain of HEK293 cell lysate proteins (Homo sapiens, UniProt P05089) (P05089 whole entry): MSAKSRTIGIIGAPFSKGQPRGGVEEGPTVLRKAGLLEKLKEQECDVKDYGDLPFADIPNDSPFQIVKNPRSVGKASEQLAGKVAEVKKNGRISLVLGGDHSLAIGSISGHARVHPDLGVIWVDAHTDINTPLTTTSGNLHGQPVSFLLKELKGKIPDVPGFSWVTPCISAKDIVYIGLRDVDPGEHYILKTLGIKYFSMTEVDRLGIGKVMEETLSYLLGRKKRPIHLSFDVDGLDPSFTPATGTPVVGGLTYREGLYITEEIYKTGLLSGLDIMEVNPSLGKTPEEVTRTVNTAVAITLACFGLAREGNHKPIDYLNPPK

[6] = molecular target: HEK293 cell lysate proteins (Homo sapiens, UniProt P05109); format: binding
[7] = molecular target: HEK293 cell lysate proteins (Homo sapiens, UniProt P06702); format: binding
Chain of HEK293 cell lysate proteins (Homo sapiens, UniProt P06702) (P06702 whole entry): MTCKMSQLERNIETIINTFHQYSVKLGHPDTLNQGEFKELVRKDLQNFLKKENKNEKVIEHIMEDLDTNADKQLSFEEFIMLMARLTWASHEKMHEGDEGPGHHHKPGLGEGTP

[8] = molecular target: HEK293 cell lysate proteins (Homo sapiens, UniProt P07355); format: binding
[9] = molecular target: HEK293 cell lysate proteins (Homo sapiens, UniProt P0DOX5); format: binding
[10] = molecular target: HEK293 cell lysate proteins (Homo sapiens, UniProt P11142); format: binding
[11] = molecular target: HEK293 cell lysate proteins (Homo sapiens, UniProt P14923); format: binding
[12] = molecular target: HEK293 cell lysate proteins (Homo sapiens, UniProt P22735); format: binding
[13] = molecular target: HEK293 cell lysate proteins (Homo sapiens, UniProt P23490); format: binding
[14] = molecular target: HEK293 cell lysate proteins (Homo sapiens, UniProt P25311); format: binding
[15] = molecular target: HEK293 cell lysate proteins (Homo sapiens, UniProt P27708); format: binding
[16] = molecular target: HEK293 cell lysate proteins (Homo sapiens, UniProt P31025); format: binding
Chain of HEK293 cell lysate proteins (Homo sapiens, UniProt P31025) (P31025 19-176): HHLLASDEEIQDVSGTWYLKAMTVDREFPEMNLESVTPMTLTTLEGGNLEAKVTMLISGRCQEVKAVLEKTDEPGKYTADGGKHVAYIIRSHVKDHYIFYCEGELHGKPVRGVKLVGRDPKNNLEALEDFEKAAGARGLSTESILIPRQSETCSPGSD

[17] = molecular target: HEK293 cell lysate proteins (Homo sapiens, UniProt P41252); format: binding
[18] = molecular target: HEK293 cell lysate proteins (Homo sapiens, UniProt P42357); format: binding
[19] = molecular target: HEK293 cell lysate proteins (Homo sapiens, UniProt Q01469); format: binding
Chain of HEK293 cell lysate proteins (Homo sapiens, UniProt Q01469) (Q01469 whole entry, looked up): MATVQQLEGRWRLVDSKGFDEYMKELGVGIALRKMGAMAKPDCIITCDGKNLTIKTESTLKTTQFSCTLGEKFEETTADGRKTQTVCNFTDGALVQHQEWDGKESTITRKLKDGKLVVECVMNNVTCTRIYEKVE

[20] = molecular target: HEK293 cell lysate proteins (Homo sapiens, UniProt Q02413); format: binding
[21] = molecular target: HEK293 cell lysate proteins (Homo sapiens, UniProt Q03164); format: binding
[22] = molecular target: HEK293 cell lysate proteins (Homo sapiens, UniProt Q08188); format: binding
Chain of HEK293 cell lysate proteins (Homo sapiens, UniProt Q08188) (Q08188 whole entry): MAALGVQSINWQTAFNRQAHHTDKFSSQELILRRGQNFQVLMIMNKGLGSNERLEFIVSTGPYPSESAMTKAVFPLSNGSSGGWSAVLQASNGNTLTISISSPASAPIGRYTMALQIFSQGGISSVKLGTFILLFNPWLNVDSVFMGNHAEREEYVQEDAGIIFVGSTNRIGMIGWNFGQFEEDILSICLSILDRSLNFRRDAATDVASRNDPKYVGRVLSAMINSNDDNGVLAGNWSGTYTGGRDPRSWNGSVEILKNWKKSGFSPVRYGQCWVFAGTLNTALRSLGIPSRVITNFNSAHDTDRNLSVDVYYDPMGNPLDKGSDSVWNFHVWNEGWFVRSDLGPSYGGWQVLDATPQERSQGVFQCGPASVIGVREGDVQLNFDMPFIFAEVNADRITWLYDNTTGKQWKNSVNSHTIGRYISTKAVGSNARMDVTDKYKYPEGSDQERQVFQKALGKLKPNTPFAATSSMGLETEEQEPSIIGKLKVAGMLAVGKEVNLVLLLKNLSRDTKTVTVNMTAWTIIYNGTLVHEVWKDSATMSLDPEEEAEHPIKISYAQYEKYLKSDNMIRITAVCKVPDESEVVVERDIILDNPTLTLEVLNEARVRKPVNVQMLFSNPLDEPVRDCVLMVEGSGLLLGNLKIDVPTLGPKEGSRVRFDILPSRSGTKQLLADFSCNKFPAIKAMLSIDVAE

[23] = molecular target: HEK293 cell lysate proteins (Homo sapiens, UniProt Q13867); format: binding
Chain of HEK293 cell lysate proteins (Homo sapiens, UniProt Q13867) (Q13867 whole entry): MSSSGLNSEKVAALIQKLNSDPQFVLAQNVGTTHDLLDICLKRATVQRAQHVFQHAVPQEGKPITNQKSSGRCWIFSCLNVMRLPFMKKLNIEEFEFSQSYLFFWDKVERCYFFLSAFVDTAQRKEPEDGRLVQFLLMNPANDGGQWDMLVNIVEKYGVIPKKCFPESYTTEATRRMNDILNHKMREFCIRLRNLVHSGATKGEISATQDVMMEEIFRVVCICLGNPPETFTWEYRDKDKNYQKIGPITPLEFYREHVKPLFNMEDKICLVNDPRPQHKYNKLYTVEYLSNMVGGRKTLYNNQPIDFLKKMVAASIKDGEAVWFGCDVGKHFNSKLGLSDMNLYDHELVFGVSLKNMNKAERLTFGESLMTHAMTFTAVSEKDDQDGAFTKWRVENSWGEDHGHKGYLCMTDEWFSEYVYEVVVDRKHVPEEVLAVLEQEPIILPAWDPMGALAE

[24] = molecular target: HEK293 cell lysate proteins (Homo sapiens, UniProt Q5T749); format: binding
[25] = molecular target: HEK293 cell lysate proteins (Homo sapiens, UniProt Q86VP6); format: binding
[26] = molecular target: HEK293 cell lysate proteins (Homo sapiens, UniProt Q96QA5); format: binding
[27] = molecular target: HEK293 cell lysate proteins and CHIKV nsP2 (Homo sapiens, UniProt O43290); format: binding
[28] = molecular target: HEK293 cell lysate proteins and CHIKV nsP2 (Homo sapiens, UniProt O60814); format: binding
[29] = molecular target: HEK293 cell lysate proteins and CHIKV nsP2 (Homo sapiens, UniProt P14923); format: binding
[30] = molecular target: HEK293 cell lysate proteins and CHIKV nsP2 (Homo sapiens, UniProt P31944); format: binding
[31] = molecular target: HEK293 cell lysate proteins and CHIKV nsP2 (Homo sapiens, UniProt P55786); format: binding
[32] = molecular target: HEK293 cell lysate proteins and CHIKV nsP2 (Homo sapiens, UniProt Q01469); format: binding
Chain of HEK293 cell lysate proteins and CHIKV nsP2 (Homo sapiens, UniProt Q01469) (Q01469 whole entry, looked up): as the sequence (Q01469 whole entry, looked up) above

[33] = molecular target: HEK293 cell lysate proteins and CHIKV nsP2 (Homo sapiens, UniProt Q08554); format: binding
[34] = molecular target: HEK293 cell lysate proteins and CHIKV nsP2 (Homo sapiens, UniProt Q14562); format: binding
Chain of HEK293 cell lysate proteins and CHIKV nsP2 (Homo sapiens, UniProt Q14562) (Q14562 whole entry): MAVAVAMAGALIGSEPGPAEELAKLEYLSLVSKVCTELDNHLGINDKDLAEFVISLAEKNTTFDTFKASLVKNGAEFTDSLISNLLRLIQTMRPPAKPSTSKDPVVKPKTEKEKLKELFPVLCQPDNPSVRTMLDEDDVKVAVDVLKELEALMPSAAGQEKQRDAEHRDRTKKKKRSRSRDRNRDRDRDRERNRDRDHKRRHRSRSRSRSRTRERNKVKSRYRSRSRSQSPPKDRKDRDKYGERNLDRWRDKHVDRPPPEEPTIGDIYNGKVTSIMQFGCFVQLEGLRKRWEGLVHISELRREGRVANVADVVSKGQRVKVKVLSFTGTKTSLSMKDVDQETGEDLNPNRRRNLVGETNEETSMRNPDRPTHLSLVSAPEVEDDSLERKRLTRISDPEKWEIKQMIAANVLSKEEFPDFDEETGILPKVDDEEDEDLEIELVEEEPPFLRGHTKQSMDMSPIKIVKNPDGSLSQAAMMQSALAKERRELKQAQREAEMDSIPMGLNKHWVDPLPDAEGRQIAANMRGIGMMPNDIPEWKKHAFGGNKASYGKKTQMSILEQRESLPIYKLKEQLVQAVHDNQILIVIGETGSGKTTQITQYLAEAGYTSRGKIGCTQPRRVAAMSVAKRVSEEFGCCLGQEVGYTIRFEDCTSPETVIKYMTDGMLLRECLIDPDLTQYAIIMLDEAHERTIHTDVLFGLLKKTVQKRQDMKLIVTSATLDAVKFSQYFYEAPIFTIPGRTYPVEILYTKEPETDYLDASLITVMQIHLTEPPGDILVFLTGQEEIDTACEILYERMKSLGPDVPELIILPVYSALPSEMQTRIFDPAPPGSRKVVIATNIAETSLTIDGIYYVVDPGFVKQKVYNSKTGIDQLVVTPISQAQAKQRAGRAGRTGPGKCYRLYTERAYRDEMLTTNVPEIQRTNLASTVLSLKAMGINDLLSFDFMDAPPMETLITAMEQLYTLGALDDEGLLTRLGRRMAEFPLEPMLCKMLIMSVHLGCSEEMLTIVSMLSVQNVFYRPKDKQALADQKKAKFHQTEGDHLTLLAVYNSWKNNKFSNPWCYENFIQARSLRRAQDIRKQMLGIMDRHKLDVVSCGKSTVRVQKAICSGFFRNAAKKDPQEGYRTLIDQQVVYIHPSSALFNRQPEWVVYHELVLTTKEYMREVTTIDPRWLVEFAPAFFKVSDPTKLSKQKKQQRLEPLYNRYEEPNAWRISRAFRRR

[35] = molecular target: HEK293 cell lysate proteins and CHIKV nsP2 (Homo sapiens, UniProt Q5T749); format: binding
[36] = molecular target: HEK293 cell lysate proteins and CHIKV nsP2 (Homo sapiens, UniProt Q6KC79); format: binding
[37] = molecular target: HEK293 cell lysate proteins and CHIKV nsP2 (Homo sapiens, UniProt Q6ZVX7); format: binding
[38] = molecular target: HEK293 cell lysate proteins and CHIKV nsP2 (Homo sapiens, UniProt Q8NE71); format: binding
[39] = molecular target: HEK293 cell lysate proteins and CHIKV nsP2 (Homo sapiens, UniProt Q9HCY8); format: binding
[40] = molecular target: HEK293 cell lysate proteins and CHIKV nsP2 (Homo sapiens, UniProt Q9Y5B9); format: binding
Chain of HEK293 cell lysate proteins and CHIKV nsP2 (Homo sapiens, UniProt Q9Y5B9) (Q9Y5B9 whole entry): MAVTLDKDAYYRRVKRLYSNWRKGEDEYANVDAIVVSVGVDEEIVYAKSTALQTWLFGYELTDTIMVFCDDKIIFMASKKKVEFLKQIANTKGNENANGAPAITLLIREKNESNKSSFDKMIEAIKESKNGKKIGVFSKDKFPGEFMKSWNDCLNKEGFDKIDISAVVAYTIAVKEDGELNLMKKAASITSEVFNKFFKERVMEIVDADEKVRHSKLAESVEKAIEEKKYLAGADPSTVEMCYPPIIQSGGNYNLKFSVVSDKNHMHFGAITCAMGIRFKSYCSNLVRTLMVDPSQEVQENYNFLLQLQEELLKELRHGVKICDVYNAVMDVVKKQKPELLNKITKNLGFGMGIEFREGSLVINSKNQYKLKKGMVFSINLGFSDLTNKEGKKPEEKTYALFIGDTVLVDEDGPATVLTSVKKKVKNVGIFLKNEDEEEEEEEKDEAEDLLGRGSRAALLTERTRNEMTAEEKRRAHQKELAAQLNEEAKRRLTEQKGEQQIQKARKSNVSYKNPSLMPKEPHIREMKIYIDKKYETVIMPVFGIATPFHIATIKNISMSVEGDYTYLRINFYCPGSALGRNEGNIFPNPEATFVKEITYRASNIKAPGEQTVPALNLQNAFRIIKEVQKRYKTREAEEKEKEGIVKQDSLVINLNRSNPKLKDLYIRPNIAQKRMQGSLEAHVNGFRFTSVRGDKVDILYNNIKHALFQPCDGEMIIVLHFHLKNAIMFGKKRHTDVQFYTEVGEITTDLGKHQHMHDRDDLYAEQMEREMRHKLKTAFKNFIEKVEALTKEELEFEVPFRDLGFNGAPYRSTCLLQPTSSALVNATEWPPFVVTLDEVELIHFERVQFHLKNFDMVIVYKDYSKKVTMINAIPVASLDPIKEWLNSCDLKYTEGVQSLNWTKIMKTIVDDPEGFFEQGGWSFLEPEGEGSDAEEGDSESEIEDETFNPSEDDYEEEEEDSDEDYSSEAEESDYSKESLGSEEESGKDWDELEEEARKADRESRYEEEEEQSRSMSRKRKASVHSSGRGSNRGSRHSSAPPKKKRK

In the case of `C#CCOc1ccccc1-c1cc(C(=O)NC/C=C/S(C)(=O)=O)on1` [VS, (E)-N-(3-(methylsulfonyl)allyl)−3-(2-(prop-2-yn-1-yloxy)phenyl)isoxazole-5-carboxamide], the IC50 [1] is reported as 0.065 µM, the Log2 fold change [2] is reported as 1.10 and the Log2 fold change [3] is reported as 2.14. For the same compound, the Log2 fold change [4] was 1.49, the Log2 fold change [5] was 1.79 and the Log2 fold change [6] was 1.58. The Log2 fold change [7] was 1.63, the Log2 fold change [8] was 1.52 and the Log2 fold change [9] was 1.84. For the same compound, the Log2 fold change [10] was 1.15, the Log2 fold change [11] was 1.97 and the Log2 fold change [12] was 1.60. The Log2 fold change [13] was 2.79, the Log2 fold change [14] was 1.43 and the Log2 fold change [15] was 3.73. For the same compound, the Log2 fold change [16] was 1.54, the Log2 fold change [17] was 1.48 and the Log2 fold change [18] was 1.12. It also gave a Log2 fold change [19] of 2.38, a Log2 fold change [20] of 1.36 and a Log2 fold change [21] of -1.44. The Log2 fold change [22] was 1.61, the Log2 fold change [23] was 1.56 and the Log2 fold change [24] was 2.53. For the same compound, the Log2 fold change [25] was -1.19, the Log2 fold change [26] was 1.51 and the Log2 fold change [27] was 0.62. The Log2 fold change [28] was -1.93, the Log2 fold change [29] was 1.97 and the Log2 fold change [30] was 1.29. For the same compound, the Log2 fold change [31] was 2.43, the Log2 fold change [32] was 2.38 and the Log2 fold change [33] was 0.93. For the same compound, the Log2 fold change [34] was -0.65, the Log2 fold change [35] was 2.53 and the Log2 fold change [36] was -0.34. For the same compound, the Log2 fold change [37] was 2.74, the Log2 fold change [38] was -0.92 and the Log2 fold change [39] was -1.35. It also gave a Log2 fold change [40] of -3.45.
